Experiments:
[1] = In vivo metabolites in rat urine and feces by UPLC-Q-TOF-MS/MS; conditions: rats; for metabolite detected in feces: TNBG-5602 i.v. 4.8 mg kg^−1, feces 0-24 h
Experimental: An Exion LC^TM AC UPLC system (AB Sciex, Framingham, MA, USA) coupled with an […] Q-TOF tandem mass spectrometer was used for qualitative analysis in this study. Chromatographic separation was carried out on an ACQUITY UPLC HSS T3 column (2.1 × 75 mm, 1.8 μm, Waters, Wexford, Ireland). […] The column temperature was set to 35 °C. The injection volume was 5 μL. A full scan was performed over m/z 100-1000 for precursor ions in positive mode with a spray voltage of 5.5 kV, collision energy (CE) of 35 V, CE spread of 15 V, and accumulation time of 0.05 s. The Q-TOF scan for product ions was performed over m/z 100-1200 with CE 10 V and an accumulation time of 0.1 s. For the structural identification of metabolites, the UPLC-Q-TOF-MS/MS data were acquired and processed via SCIEX OS (Version 1.7, AB Sciex, Redwood City, CA, USA). The raw data files were imported into SCIEX OS 2.1 to search for and identify the metabolites of TNBG-5602. Identification of the chemical structure included two steps. The first step was automatic prediction, while the second step was manual validation. In Step 1, the candidate metabolites were predicted by the software based on the typical metabolic reactions of the templates. In Step 2, an ion chromatogram was extracted to screen candidate metabolites with mass tolerance within 5 ppm, using blank samples for the subtraction of the background. Then, the MS/MS fragment ions were extracted for the structural confirmation of candidate metabolites. […] The urine and feces samples were collected before administration (0 h) and at 8, 12, and 24 h after intravenous injection. The urine samples were vortex mixed with acetonitrile at a ratio of 1:3 (v/v) for 15 min. The mixture was then centrifuged at 15,000 rpm for 10 min, and the supernatant was dried using a gentle flow of nitrogen. The residue was dissolved in acetonitrile and vortex mixed again. The supernatant was dried again and re-dissolved in 0.1% aqueous formic acid: acetonitrile (50:50, v/v). The treated sample solutions were stored at -20 °C until analysis. A 5 μL aliquot of the thawed sample solution was injected into the UPLC-Q-TOF-MS/MS device to analyze the metabolites. The feces samples were homogenized with pure water at a ratio of 1:1 (w/w). The homogenate was vortex mixed with acetonitrile at a ratio of 1:3 (w/v) for 15 min. The mixture was then centrifuged at 15,000 rpm for 10 min, and the supernatant was dried using a gentle flow of nitrogen. The residue was dissolved with acetonitrile and vortex mixed again. The supernatant was dried again and re-dissolved in 0.1% aqueous formic acid: acetonitrile (50:50, v/v). The treated sample solutions were stored at -20 °C until analysis. A 5-μL aliquot of the thawed sample solution was injected into the UPLC-Q-TOF-MS/MS device to analyze the metabolites.

[2] = biological target: T1, CYP2D6 (Homo sapiens, UniProt P10635); assay: Metabolite formation on incubation with recombinant CYP; format: in vitro ADME; conditions: TNBG-5602 5 μg mL^−1, recombinant CYP 0.025 μM, 37 °C, 60 min
T1 construct: purchased IPHASE
T1 sequence (P10635 whole entry): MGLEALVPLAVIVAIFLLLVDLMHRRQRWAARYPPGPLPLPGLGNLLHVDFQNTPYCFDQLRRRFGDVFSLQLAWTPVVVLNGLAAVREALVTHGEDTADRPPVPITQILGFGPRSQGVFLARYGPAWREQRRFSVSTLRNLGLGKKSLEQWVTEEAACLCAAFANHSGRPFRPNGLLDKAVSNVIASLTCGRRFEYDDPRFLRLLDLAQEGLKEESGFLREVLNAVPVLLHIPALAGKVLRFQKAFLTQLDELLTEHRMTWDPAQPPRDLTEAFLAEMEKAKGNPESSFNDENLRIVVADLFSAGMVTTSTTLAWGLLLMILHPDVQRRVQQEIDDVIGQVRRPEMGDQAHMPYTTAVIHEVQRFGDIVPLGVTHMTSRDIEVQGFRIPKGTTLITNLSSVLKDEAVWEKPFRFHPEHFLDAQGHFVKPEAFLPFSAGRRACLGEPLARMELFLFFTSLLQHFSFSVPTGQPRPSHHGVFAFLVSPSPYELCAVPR
Experimental: (§1) An Exion LC^TM AC UPLC system (AB Sciex, Framingham, MA, USA) coupled with an […] Q-TOF tandem mass spectrometer was used for qualitative analysis in this study. Chromatographic separation was carried out on an ACQUITY UPLC HSS T3 column (2.1 × 75 mm, 1.8 μm, Waters, Wexford, Ireland). […] The column temperature was set to 35 °C. The injection volume was 5 μL. A full scan was performed over m/z 100-1000 for precursor ions in positive mode with a spray voltage of 5.5 kV, collision energy (CE) of 35 V, CE spread of 15 V, and accumulation time of 0.05 s. The Q-TOF scan for product ions was performed over m/z 100-1200 with CE 10 V and an accumulation time of 0.1 s. For the structural identification of metabolites, the UPLC-Q-TOF-MS/MS data were acquired and processed via SCIEX OS (Version 1.7, AB Sciex, Redwood City, CA, USA). The raw data files were imported into SCIEX OS 2.1 to search for and identify the metabolites of TNBG-5602. Identification of the chemical structure included two steps. The first step was automatic prediction, while the second step was manual validation. In Step 1, the candidate metabolites were predicted by the software based on the typical metabolic reactions of the templates. In Step 2, an ion chromatogram was extracted to screen candidate metabolites with mass tolerance within 5 ppm, using blank samples for the subtraction of the background. Then, the MS/MS fragment ions were extracted for the structural confirmation of candidate metabolites. The stock solution of TNBG-5602 ([…]) was prepared using 0.1% aqueous formic acid. Then, the stock solution was diluted with PBS buffer to make the working solution of TNBG-5602 (1 mg mL^-1). The working solution of TNBG-5602 was incubated with CYP2D6, CYP3A4, CYP2C9, and CYP4V2 recombinant cytochrome enzymes, respectively. The total incubation volume for each reaction was 200 μL, containing TNBG-5602 (final concentration: 5 μg mL^-1), cytochrome P450s (final concentration: 0.025 μM), 3.3 mM MgCl2, 1.3 mM NADPH, 3.3 mM glucose-6-phosphate, 0.4 U mL^-1 glucose-6-phosphate dehydrogenase, and 0.05 mM sodium citrate. The cytochrome P450s were thawed on an ice bath and pre-incubated at 37 °C for 5 min. The mixtures were pre-incubated at 37 °C for 5 min before adding NADPH to initiate the reaction. NADPH was pre-incubated at 37 °C for 5 min and then added into the incubation system to initiate the reaction. The incubation periods were 60 min, and the reactions were quenched by adding 200 μL of iced acetonitrile. The samples were centrifuged (12,000× g rpm, 4 °C) for 10 min, and the supernatant was analyzed via the qualitative LC-MS/MS method. Blank samples in the absence of TNBG-5602 were incubated and followed by the same treatment.

[3] = biological target: T2, CYP4V2 (Homo sapiens, UniProt Q6ZWL3); assay: as above; format: in vitro ADME; conditions: TNBG-5602 5 μg mL^−1, recombinant CYP 0.025 μM, 37 °C, 60 min
T2 construct: purchased Abnova P01
T2 sequence (Q6ZWL3 1-525): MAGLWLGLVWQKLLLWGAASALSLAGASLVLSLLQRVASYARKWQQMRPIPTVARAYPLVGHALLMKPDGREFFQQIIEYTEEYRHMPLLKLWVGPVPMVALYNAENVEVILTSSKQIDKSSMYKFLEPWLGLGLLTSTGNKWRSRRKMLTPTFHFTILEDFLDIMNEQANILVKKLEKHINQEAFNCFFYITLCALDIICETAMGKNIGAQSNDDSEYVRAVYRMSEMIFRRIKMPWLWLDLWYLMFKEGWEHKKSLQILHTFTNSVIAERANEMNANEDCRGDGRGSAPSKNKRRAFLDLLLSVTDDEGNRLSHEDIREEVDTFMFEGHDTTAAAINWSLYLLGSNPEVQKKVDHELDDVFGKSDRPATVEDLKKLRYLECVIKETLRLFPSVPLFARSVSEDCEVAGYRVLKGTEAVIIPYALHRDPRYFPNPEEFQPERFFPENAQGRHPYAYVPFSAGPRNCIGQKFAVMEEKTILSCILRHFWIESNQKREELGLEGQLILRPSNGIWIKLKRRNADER
Experimental: as §1

[4] = biological target: T3, CYP2C9 (Homo sapiens, UniProt P11712); assay: as above; format: in vitro ADME; conditions: TNBG-5602 5 μg mL^−1, recombinant CYP 0.025 μM, 37 °C, 60 min
T3 construct: purchased IPHASE
T3 sequence (P11712 whole entry): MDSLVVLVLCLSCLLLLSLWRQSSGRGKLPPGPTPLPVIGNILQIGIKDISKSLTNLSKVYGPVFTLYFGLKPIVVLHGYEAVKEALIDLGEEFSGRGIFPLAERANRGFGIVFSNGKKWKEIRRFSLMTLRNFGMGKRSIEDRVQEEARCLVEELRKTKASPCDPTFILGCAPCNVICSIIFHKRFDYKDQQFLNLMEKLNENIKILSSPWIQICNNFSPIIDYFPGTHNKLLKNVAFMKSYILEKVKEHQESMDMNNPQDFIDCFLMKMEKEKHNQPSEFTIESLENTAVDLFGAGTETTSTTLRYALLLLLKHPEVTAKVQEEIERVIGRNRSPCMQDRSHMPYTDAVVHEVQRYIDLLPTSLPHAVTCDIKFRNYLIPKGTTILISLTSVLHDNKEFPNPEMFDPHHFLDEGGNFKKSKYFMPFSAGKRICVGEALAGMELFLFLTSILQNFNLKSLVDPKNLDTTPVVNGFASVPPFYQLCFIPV
Experimental: as §1

[5] = biological target: T4, CYP3A4 (Homo sapiens, UniProt P08684); assay: as above; format: in vitro ADME; conditions: TNBG-5602 5 μg mL^−1, recombinant CYP 0.025 μM, 37 °C, 60 min
T4 construct: purchased IPHASE
T4 sequence (P08684 whole entry): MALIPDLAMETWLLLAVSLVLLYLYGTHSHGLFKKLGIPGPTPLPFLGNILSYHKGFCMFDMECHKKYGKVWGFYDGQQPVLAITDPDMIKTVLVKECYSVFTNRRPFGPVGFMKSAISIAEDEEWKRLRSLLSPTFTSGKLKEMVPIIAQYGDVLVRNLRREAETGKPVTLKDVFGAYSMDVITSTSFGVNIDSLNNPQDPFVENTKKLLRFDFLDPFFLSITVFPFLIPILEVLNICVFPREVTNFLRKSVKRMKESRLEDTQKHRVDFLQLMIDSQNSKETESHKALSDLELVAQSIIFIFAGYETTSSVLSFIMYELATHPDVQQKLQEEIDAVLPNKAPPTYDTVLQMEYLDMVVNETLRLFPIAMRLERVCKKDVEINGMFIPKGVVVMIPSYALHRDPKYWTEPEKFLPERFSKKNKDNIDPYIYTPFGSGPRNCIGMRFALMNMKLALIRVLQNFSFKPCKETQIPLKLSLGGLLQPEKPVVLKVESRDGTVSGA
Experimental: as §1

Compound | rank of metabolite in the feces (major/minor) ([1]; TNBG-5602 i.v.) | rank of metabolite in the urine ([1]; TNBG-5602 i.v.) | metabolite detected in feces [1] | metabolite detected in urine ([1]; TNBG-5602 i.v. 4.8 mg kg^−1, urine 0-24 h) | metabolite detected after incubation with CYP2D6 [2] | metabolite detected after incubation with CYP4V2 [3] | metabolite detected after incubation with CYP2C9 [4] | metabolite detected after incubation with CYP3A4 [5]
CNCCN1CC2c3ccccc3CCN2c2nc3ccccc3nc21 (centres unmarked) [M5] | major | main | present and × | present and × | observed and × | found and × | found and × | obtained and ×
CN1CCN2CC3c4ccccc4CCN3C3=Nc4ccccc4NC312 (centres unmarked) [M6] | minor | – | × | – | – | – | – | –
c1ccc2c(c1)CCN1c3nc4ccccc4nc3N(CCN3COC3)CC21 (centres unmarked) [M7] | minor | – | × | – | – | – | – | –
CN(C=O)CCN1CC2c3ccccc3CCN2c2nc3ccccc3nc21 (centres unmarked) [M8] | minor | – | × | – | – | – | – | –

From article PMC9024597, “The Biological Fate of a Novel Anticancer Drug Candidate TNBG-5602: Metabolic Profile, Interaction with CYP450, and Pharmacokinetics in Rats” (Molecules, 2022)
